Literature values as cited in patent publication US20260258420A1, “COMPOSITIONS AND METHODS FOR THE TREATMENT OF HUMAN PAPILLOMAVIRUS-DRIVEN CANCERS” (priority 2023, published 2026).
pIC50: −log10 of the molar value.

Tests used:
SiHa = details: cited from earlier work
UPCI-SCC-090 = details: cited from earlier work
[1] = HNSCC patients who received 100 mg/m^2; read-out: plasma Cmax; cited from earlier work
ME180 = details: cited from earlier work
Vu147T = details: cited from earlier work
UDSCC2 = details: cited from earlier work
CaSki = details: cited from earlier work

SMILES: N.N.[Cl][Pt][Cl] [cisplatin]
- pIC50 (SiHa): 4.55
- pIC50 (UPCI-SCC-090): 4.95
- Cmax [1]: 11 µM
- pIC50 (ME180): 4.92
- pIC50 (Vu147T): 4.95
- pIC50 (UDSCC2): 4.74
- pIC50 (CaSki): 4.82
